From ChEMBL document CHEMBL3813683, “Design, synthesis and anti-cancer activity evaluation of podophyllotoxin-norcantharidin hybrid drugs” (Bioorg Med Chem Lett, 2016)

How the values were obtained:
[1] = Cytotoxicity against HEK293T cells after 36 hrs by MTT assay; assay type: cell-based; conditions: Homo sapiens, HEK-293T
MCF7 [2] = experiment: Cytotoxicity against human MCF7 cells after 36 hrs by MTT assay; assay type: functional, cell-based; conditions: MCF7, 36 h
A549 = experiment: Cytotoxicity against human A549 cells after 36 hrs by MTT assay; assay type: functional, cell-based; conditions: A549, 36 h
HeLa = experiment: Cytotoxicity against human HeLa cells after 36 hrs by MTT assay; assay type: functional, cell-based
MCF7 [3] = experiment: Induction of apoptosis in human MCF7 cells assessed as early apoptotic cells at 1 uM after 24 hrs by Annexin V-FITC/propidium iodide staining-based flow cytometry (reference value: 2.45 to 6.92%); assay type: functional
MCF7 [4] = experiment: Cell cycle arrest in human MCF7 cells assessed as accumulation at G0/G1 phase at 2 uM after 24 hrs by propidium iodide staining-based flow cytometry (reference value: 64.68 to 80.32%); assay type: functional
MCF7 [5] = experiment: Induction of apoptosis in human MCF7 cells assessed as late apoptotic cells at 1 uM after 24 hrs by Annexin V-FITC/propidium iodide staining-based flow cytometry (reference value: 5.92 to 9.33%); assay type: functional
MCF7 [6] = experiment: Induction of apoptosis in human MCF7 cells assessed as necrotic cells at 8 uM after 24 hrs by Annexin V-FITC/propidium iodide staining-based flow cytometry (reference value: 0.021 to 3.8%); assay type: functional
MCF7 [7] = experiment: Induction of apoptosis in human MCF7 cells assessed as viable cells at 8 uM after 24 hrs by Annexin V-FITC/propidium iodide staining-based flow cytometry (reference value: 80 to 91.6%); assay type: functional; conditions: MCF7, 24 h, read-out: Activity
MCF7 [8] = experiment: Induction of apoptosis in human MCF7 cells assessed as viable cells at 2 uM after 24 hrs by Annexin V-FITC/propidium iodide staining-based flow cytometry (reference value: 80 to 91.6%); assay type: functional; conditions: MCF7, 24 h, read-out: Activity
MCF7 [9] = experiment: Cell cycle arrest in human MCF7 cells assessed as accumulation at G0/G1 phase at 8 uM after 24 hrs by propidium iodide staining-based flow cytometry (reference value: 64.68 to 80.32%); assay type: functional
MCF7 [10] = experiment: Cell cycle arrest in human MCF7 cells assessed as accumulation at S phase at 4 uM after 24 hrs by propidium iodide staining-based flow cytometry (reference value: 15.95 to 25.74%); assay type: functional
MCF7 [11] = experiment: Induction of apoptosis in human MCF7 cells assessed as early apoptotic cells at 2 uM after 24 hrs by Annexin V-FITC/propidium iodide staining-based flow cytometry (reference value: 2.45 to 6.92%); assay type: functional
MCF7 [12] = experiment: Induction of apoptosis in human MCF7 cells assessed as necrotic cells at 1 uM after 24 hrs by Annexin V-FITC/propidium iodide staining-based flow cytometry (reference value: 0.021 to 3.8%); assay type: functional
MCF7 [13] = experiment: Cell cycle arrest in human MCF7 cells assessed as accumulation at G2/M phase at 4 uM after 24 hrs by propidium iodide staining-based flow cytometry (reference value: 3.73 to 10.75%); assay type: functional
MCF7 [14] = experiment: Cell cycle arrest in human MCF7 cells assessed as accumulation at G2/M phase at 8 uM after 24 hrs by propidium iodide staining-based flow cytometry (reference value: 3.73 to 10.75%); assay type: functional
MCF7 [15] = experiment: Induction of apoptosis in human MCF7 cells assessed as viable cells at 4 uM after 24 hrs by Annexin V-FITC/propidium iodide staining-based flow cytometry (reference value: 80 to 91.6%); assay type: functional; conditions: MCF7, 24 h, read-out: Activity
MCF7 [16] = experiment: Induction of apoptosis in human MCF7 cells assessed as viable cells at 1 uM after 24 hrs by Annexin V-FITC/propidium iodide staining-based flow cytometry (reference value: 80 to 91.6%); assay type: functional; conditions: MCF7, 24 h, read-out: Activity
MCF7 [17] = experiment: Cell cycle arrest in human MCF7 cells assessed as accumulation at G0/G1 phase at 4 uM after 24 hrs by propidium iodide staining-based flow cytometry (reference value: 64.68 to 80.32%); assay type: functional
MCF7 [18] = experiment: Induction of apoptosis in human MCF7 cells assessed as necrotic cells at 2 uM after 24 hrs by Annexin V-FITC/propidium iodide staining-based flow cytometry (reference value: 0.021 to 3.8%); assay type: functional
MCF7 [19] = experiment: Induction of apoptosis in human MCF7 cells assessed as late apoptotic cells at 2 uM after 24 hrs by Annexin V-FITC/propidium iodide staining-based flow cytometry (reference value: 5.92 to 9.33%); assay type: functional
MCF7 [20] = experiment: Induction of apoptosis in human MCF7 cells assessed as early apoptotic cells at 4 uM after 24 hrs by Annexin V-FITC/propidium iodide staining-based flow cytometry (reference value: 2.45 to 6.92%); assay type: functional
MCF7 [21] = experiment: Induction of apoptosis in human MCF7 cells assessed as late apoptotic cells at 8 uM after 24 hrs by Annexin V-FITC/propidium iodide staining-based flow cytometry (reference value: 5.92 to 9.33%); assay type: functional
MCF7 [22] = experiment: Induction of apoptosis in human MCF7 cells assessed as early apoptotic cells at 8 uM after 24 hrs by Annexin V-FITC/propidium iodide staining-based flow cytometry (reference value: 2.45 to 6.92%); assay type: functional
MCF7 [23] = experiment: Induction of apoptosis in human MCF7 cells assessed as necrotic cells at 4 uM after 24 hrs by Annexin V-FITC/propidium iodide staining-based flow cytometry (reference value: 0.021 to 3.8%); assay type: functional
MCF7 [24] = experiment: Cell cycle arrest in human MCF7 cells assessed as accumulation at S phase at 2 uM after 24 hrs by propidium iodide staining-based flow cytometry (reference value: 15.95 to 25.74%); assay type: functional
MCF7 [25] = experiment: Cell cycle arrest in human MCF7 cells assessed as accumulation at G2/M phase at 2 uM after 24 hrs by propidium iodide staining-based flow cytometry (reference value: 3.73 to 10.75%); assay type: functional
MCF7 [26] = experiment: Cell cycle arrest in human MCF7 cells assessed as accumulation at S phase at 8 uM after 24 hrs by propidium iodide staining-based flow cytometry (reference value: 15.95 to 25.74%); assay type: functional
MCF7 [27] = experiment: Induction of apoptosis in human MCF7 cells assessed as late apoptotic cells at 4 uM after 24 hrs by Annexin V-FITC/propidium iodide staining-based flow cytometry (reference value: 5.92 to 9.33%); assay type: functional

## COc1cc(C2c3cc4c(cc3[C@H](OC(=O)C(Cc3ccccc3)N3C(=O)c5ccccc5C3=O)[C@H]3COC(=O)[C@H]23)OCO4)cc(OC)c1OC (stereo not given in full)
[1]
  IC50: 65.9 µM
MCF7 [2]
  IC50: 6.41 µM
A549
  IC50: 4.16 µM
HeLa
  IC50: 7.12 µM

## COc1cc(C2c3cc4c(cc3[C@H](OC(=O)C(Cc3ccccc3)N3C(=O)C5CCCCC5C3=O)[C@H]3COC(=O)[C@H]23)OCO4)cc(OC)c1OC (stereo not given in full)
[1]
  IC50: 61.5 µM
MCF7 [2]
  IC50: 1.17 µM
A549
  IC50: 1.72 µM
HeLa
  IC50: 2.22 µM

## COc1cc(C2c3cc4c(cc3[C@H](OC(=O)[C@@H](C)N3C(=O)C5CCCCC5C3=O)[C@H]3COC(=O)[C@H]23)OCO4)cc(OC)c1OC (stereo not given in full)
[1]
  IC50: 54.5 µM
MCF7 [2]
  IC50: 2.51 µM
A549
  IC50: 2.11 µM
HeLa
  IC50: 2.15 µM

## COc1cc(C2c3cc4c(cc3[C@H](OC(=O)C(C)N3C(=O)c5ccccc5C3=O)[C@H]3COC(=O)[C@H]23)OCO4)cc(OC)c1OC (stereo not given in full)
[1]
  IC50: 51.3 µM
MCF7 [2]
  IC50: 16.8 µM
A549
  IC50: 5.37 µM
HeLa
  IC50: 17.2 µM

## COc1cc(C2c3cc4c(cc3[C@H](OC(=O)[C@H](C)N3C(=O)C5CCCCC5C3=O)[C@H]3COC(=O)[C@H]23)OCO4)cc(OC)c1OC (stereo not given in full)
[1]
  IC50: 74.2 µM
MCF7 [2]
  IC50: 4.59 µM
A549
  IC50: 2.44 µM
HeLa
  IC50: 5.81 µM

## COc1cc(C2c3cc4c(cc3[C@H](OC(=O)[C@@H](C)N3C(=O)C5C6CCC(O6)C5C3=O)[C@H]3COC(=O)[C@H]23)OCO4)cc(OC)c1OC (stereo not given in full)
[1]
  IC50: 80.8 µM
MCF7 [2]
  IC50: 1.17 µM
A549
  IC50: 2 µM
HeLa
  IC50: 1.14 µM

## O=C1OC(=O)C2C3CCC(O3)C12 (stereo not given)
MCF7 [3]
  Activity: 5.68%
MCF7 [4]
  Activity: 41.61%
MCF7 [5]
  Activity: 14.5%
MCF7 [6]
  Activity: 14.2%
MCF7 [7]
  viability at 8 µM: 33.5%
MCF7 [8]
  viability at 2 µM: 69%
[1]
  IC50: 9.81 µM
MCF7 [2]
  IC50: 12.1 µM
MCF7 [9]
  Activity: 31.77%
MCF7 [10]
  Activity: 47.21%
MCF7 [11]
  Activity: 6.04%
MCF7 [12]
  Activity: 5.89%
MCF7 [13]
  Activity: 16.7%
MCF7 [14]
  Activity: 22.55%
MCF7 [15]
  viability at 4 µM: 58.1%
MCF7 [16]
  viability at 1 µM: 74%
MCF7 [17]
  Activity: 36.09%
MCF7 [18]
  Activity: 4.21%
MCF7 [19]
  Activity: 20.8%
MCF7 [20]
  Activity: 8.3%
A549
  IC50: 15.7 µM
MCF7 [21]
  Activity: 41.3%
MCF7 [22]
  Activity: 11%
MCF7 [23]
  Activity: 11.6%
MCF7 [24]
  Activity: 42.95%
MCF7 [25]
  Activity: 15.64%
MCF7 [26]
  Activity: 45.68%
HeLa
  IC50: 9.03 µM
MCF7 [27]
  Activity: 22%

## COc1cc(C2c3cc4c(cc3[C@H](OC(=O)[C@H](Cc3ccccc3)N3C(=O)C5C6CCC(O6)C5C3=O)[C@H]3COC(=O)[C@H]23)OCO4)cc(OC)c1OC (stereo not given in full)
[1]
  IC50: 70.3 µM
MCF7 [2]
  IC50: 6.53 µM
A549
  IC50: 3.69 µM
HeLa
  IC50: 8.79 µM

## COc1cc(C2c3cc4c(cc3[C@H](OC(=O)[C@H](C)N3C(=O)c5ccccc5C3=O)[C@H]3COC(=O)[C@H]23)OCO4)cc(OC)c1OC (stereo not given in full)
[1]
  IC50: 88.6 µM
MCF7 [2]
  IC50: 18.3 µM
A549
  IC50: 5.89 µM
HeLa
  IC50: 19 µM

## COc1cc(C2c3cc4c(cc3[C@H](OC(=O)C(C)N3C(=O)C5C6CCC(O6)C5C3=O)[C@H]3COC(=O)[C@H]23)OCO4)cc(OC)c1OC (stereo not given in full)
[1]
  IC50: 53.2 µM
MCF7 [2]
  IC50: 1.74 µM
A549
  IC50: 1.91 µM
HeLa
  IC50: 1.86 µM
